According to ChEMBL document CHEMBL5058564, “EUbOPEN Chemogenomics Library 2 (Incucyte)” (2022):

Legend:
Type in all cases: toxicity, cell-based
HEK-293T = experiment: Incucyte cell viability with HEK293T; settings: human, 10 µM, compound concentration 10 uM
U2OS = experiment: Incucyte cell viability with U2OS; settings: human, 10 µM, compound concentration 10 uM
Fibroblast = experiment: Incucyte cell viability with human fibroblast; settings: 10 µM, compound concentration 10 uM
[1] = 0 h, replicate number 1, timepoint 0 hours
[2] = 0 h, replicate number 2, timepoint 0 hours
[3] = 18 h, replicate number 1, timepoint 18 hours
[4] = 24 h, replicate number 1, timepoint 24 hours
[5] = 12 h, replicate number 1, timepoint 12 hours
[6] = 6 h, replicate number 1, timepoint 6 hours
[7] = 6 h, replicate number 2, timepoint 6 hours
[8] = 12 h, replicate number 2, timepoint 12 hours
[9] = 18 h, replicate number 2, timepoint 18 hours
[10] = 24 h, replicate number 2, timepoint 24 hours
Note: unitless GR value; below 1 slowed growth and below 0 cell loss.

Compound | Growth Rate (HEK-293T; [1]) | Growth Rate (HEK-293T; [2]) | Growth Rate (HEK-293T; [3]) | Growth Rate (HEK-293T; [4]) | Growth Rate (U2OS; [2]) | Growth Rate (U2OS; [5]) | Growth Rate (Fibroblast; [2]) | Growth Rate (U2OS; [7]) | Growth Rate (U2OS; [8]) | Growth Rate (U2OS; [3]) | Growth Rate (U2OS; [9]) | Growth Rate (U2OS; [4]) | Growth Rate (U2OS; [10]) | Growth Rate (HEK-293T; [6]) | Growth Rate (HEK-293T; [7]) | Growth Rate (HEK-293T; [5]) | Growth Rate (HEK-293T; [8]) | Growth Rate (HEK-293T; [9]) | Growth Rate (HEK-293T; [10]) | Growth Rate (Fibroblast; [6]) | further results
O=C1Nc2ccc(I)cc2/C1=C/c1cc(Br)c(O)c(Br)c1 | -0.08 | 0.11 | 0.97 | 0.91 | -0.15 | 0.89 | 0.15 |  |  |  |  |  |  |  |  |  |  |  |  |  | Growth Rate (Fibroblast; [1]): -0.2
COc1ccc(-n2c(C)c([N+](=O)[O-])c3ccc(O)cc32)cc1 | 0.39 |  |  |  | -1 | 0.46 |  | 0.75 | 0.73 | 0.7 | 0.71 | 0.63 | 0.67 |  |  |  |  |  |  |  | Growth Rate (U2OS; [6]): -0.36; Growth Rate (Fibroblast; [7]): 0.98; Growth Rate (Fibroblast; [9]): 0.87; Growth Rate (Fibroblast; [10]): 0.5
C[C@@H](c1ccc(F)cc1)n1nnc2cnc3ccc(-c4ccc5ocnc5c4)cc3c21 |  |  | 0.09 | 0.23 | 0.33 |  |  |  | 0.94 | 0.75 | 0.83 | 0.51 | 0.82 | -0.12 | -0.31 | -0.11 | -0.14 | 0.07 | 0.21 |  | Growth Rate (U2OS; [1]): -0.51; Growth Rate (Fibroblast; [1]): 0.92
N#Cc1cc(F)cc(-c2nc(-c3ccc(F)cn3)no2)c1 | 0.85 | 0.21 |  |  | -0.87 | 0.46 | 0.68 | 0.62 | 0.86 | 0.57 |  | 0.65 |  |  |  |  |  |  |  | -0.02 | Growth Rate (U2OS; [6]): -0.32; Growth Rate (Fibroblast; [5]): 0.63; Growth Rate (Fibroblast; [3]): 0.84; Growth Rate (Fibroblast; [4]): 0.6
CC(=O)Nc1cccc2c1c(Sc1ccc(Cl)cc1)c(C)n2CC(=O)O [AZD1981] |  | 0.75 | 0.83 | 0.71 |  |  | 0.38 | 0.93 |  |  | 0.89 |  | 0.95 | 0.62 |  | 0.62 |  |  |  | 0.15 | Growth Rate (Fibroblast; [7]): 0.04; Growth Rate (Fibroblast; [5]): 0.35; Growth Rate (Fibroblast; [8]): 0.14; Growth Rate (Fibroblast; [9]): 0.25; Growth Rate (Fibroblast; [4]): 0.73; Growth Rate (Fibroblast; [10]): 0.26
Cc1cccc(S(=O)(=O)N(C)[C@H](C)CCN2CCC(C)CC2)c1.Cl |  | 0.65 | 0.84 | 0.69 | -0.95 |  |  | 0.95 |  |  | 0.97 |  |  |  | 0.92 |  |  | 0.87 | 0.66 | 0.83 | Growth Rate (U2OS; [1]): 0.29; Growth Rate (Fibroblast; [1]): 0.08; Growth Rate (Fibroblast; [7]): 0.52
CCN1/C(=C/C(C)=O)Sc2ccc(OC(C)=O)cc21 | 0.98 | 0.37 | 0.49 | 0.49 | -1 |  |  |  | 0.89 |  | 0.97 |  | 0.93 | 0.5 | 0.44 | 0.29 | 0.41 | 0.37 | 0.53 | -0.38 | Growth Rate (U2OS; [1]): -0.53; Growth Rate (Fibroblast; [7]): -0.29; Growth Rate (Fibroblast; [5]): 0.14; Growth Rate (Fibroblast; [8]): 0.41; Growth Rate (Fibroblast; [3]): 0.17; Growth Rate (Fibroblast; [4]): 0.38
CC[C@H]1OC(=O)[C@H](C)[C@@H](O[C@H]2C[C@@](C)(OC)[C@@H](O)[C@H](C)O2)[C@H](C)[C@@H](O[C@@H]2O[C@H](C)C[C@H](N(C)C)[C@H]2O)[C@@]2(C)CC(C)=C(O2)[C@H](C)[C@@H](O)[C@]1(C)O |  |  |  |  |  |  |  |  |  |  | 0.96 |  |  |  | 0.55 |  | 0.77 | 0.75 | 0.82 | 0.46 | Growth Rate (Fibroblast; [7]): 0.95; Growth Rate (Fibroblast; [5]): 0.38; Growth Rate (Fibroblast; [8]): 0.44; Growth Rate (Fibroblast; [3]): 0.44; Growth Rate (Fibroblast; [4]): 0.64
NCCc1cn(S(=O)(=O)c2c(Cl)nc3sccn23)c2ccccc12.O=C(O)C(=O)O |  |  | 0.4 | 0.57 |  | 0.52 |  | 0.34 | 0.36 | 0.72 | 0.45 | 0.87 | 0.57 | -0.34 |  | 0.22 | 0.08 | 0.51 | 0.52 | -0.77 | Growth Rate (U2OS; [6]): -0.18; Growth Rate (Fibroblast; [7]): -0.79; Growth Rate (Fibroblast; [5]): -0.66; Growth Rate (Fibroblast; [8]): -0.5; Growth Rate (Fibroblast; [3]): -0.67; Growth Rate (Fibroblast; [9]): -0.42; Growth Rate (Fibroblast; [4]): -0.67; Growth Rate (Fibroblast; [10]): -0.31
CCC(C)n1ncn(-c2ccc(N3CCN(c4ccc(OC[C@@H]5CO[C@@](Cn6cncn6)(c6ccc(Cl)cc6Cl)O5)cc4)CC3)cc2)c1=O.CCC(C)n1ncn(-c2ccc(N3CCN(c4ccc(OC[C@H]5CO[C@](Cn6cncn6)(c6ccc(Cl)cc6Cl)O5)cc4)CC3)cc2)c1=O (some centres not stated) |  |  | 0.44 | -0.08 |  |  | -0.02 |  |  |  |  | 0.73 | 0.94 | -0.37 | 0.11 | -0.28 | 0.15 | 0.02 | 0.33 |  | Growth Rate (U2OS; [1]): -0.09; Growth Rate (Fibroblast; [1]): 0.6; Growth Rate (Fibroblast; [10]): 0.95
Cl.NCCc1c[nH]c2ccc(O)cc12 [SEROTONIN HYDROCHLORIDE] | 0.58 | 0.43 |  |  | 0.12 | 0.38 | 0.19 | 0.79 | 0.97 | 0.67 |  | 0.62 |  |  |  |  |  |  |  |  | Growth Rate (U2OS; [1]): 0.29; Growth Rate (U2OS; [6]): 0.46; Growth Rate (Fibroblast; [8]): 1
CSCC[C@H](NC=O)C(=O)N[C@@H](CC(C)C)C(=O)N[C@@H](Cc1ccccc1)C(=O)O | 0.95 | 0.68 | 0.78 | 0.82 |  |  | 0.65 | 0.44 | 0.83 |  | 0.92 |  | 0.97 |  | 0.85 | 1 | 0.9 |  |  | 0.81 | Growth Rate (Fibroblast; [1]): 0.43; Growth Rate (Fibroblast; [7]): 0.42; Growth Rate (Fibroblast; [5]): 0.83; Growth Rate (Fibroblast; [8]): 0.46; Growth Rate (Fibroblast; [3]): 0.58; Growth Rate (Fibroblast; [9]): 0.69; Growth Rate (Fibroblast; [4]): 0.27; Growth Rate (Fibroblast; [10]): 0.36
O=S(=O)(c1ccccc1)N(CC(F)(F)F)c1ccc(C(O)(C(F)(F)F)C(F)(F)F)cc1 [T091317] | 0.85 |  | 0.24 | 0.37 | -0.29 |  |  |  | 0.83 | 0.98 | 0.76 |  | 0.81 | 0.85 | 0.77 | 0.42 | 0.75 | 0.56 | 0.53 | 0.72 | Growth Rate (U2OS; [1]): 0.14; Growth Rate (U2OS; [6]): 0.74; Growth Rate (Fibroblast; [5]): -0.09; Growth Rate (Fibroblast; [8]): 0.22; Growth Rate (Fibroblast; [3]): -0.3; Growth Rate (Fibroblast; [9]): 0.05; Growth Rate (Fibroblast; [4]): -0.32; Growth Rate (Fibroblast; [10]): 0.05
C[C@@H]1CC(=O)Nc2cccc(-c3ccc4c(c3)c(-c3cnn(C)c3)nn4C)c2N1 |  | 0.93 | 0.41 | 0.38 |  | 0.53 |  |  |  | 0.7 |  | 0.85 |  | 0.14 | 0.26 | 0.43 | 0.42 | 0.45 | 0.43 | 0.21 | Growth Rate (U2OS; [1]): -0.4; Growth Rate (U2OS; [6]): 0.24
Br.Oc1cc2c(cc1O)C(c1ccccc1)CNCC2 (configuration not stated) | 0.99 | 0.61 | 0.92 |  |  | 0.47 | -0.21 | 1 |  | 0.55 | 0.99 | 0.98 |  | 0.78 | -0.1 | 0.62 | 0.43 | 0.37 | 0.67 |  | Growth Rate (U2OS; [6]): 0.49; Growth Rate (Fibroblast; [1]): 0.09
